In patent US20260317340A1, “COMPOUNDS, COMPOSITIONS, AND METHODS OF TREATING DISORDERS” (Chengdu Anticancer Bioscience, Ltd., priority 2023, published 2026):
Like-named read-outs stand apart in the source and are kept apart here.

What was measured:
[1] = tested on: RPE-Neo or RPE-MYC or RPE-MYC expressing an EGFP-Histone 2B fusion protein; assay: Phenotypic screening assay: arrest in mitosis, change in DNA content (polyploidy), cell death; type: cell-based; conditions: 20 nM to 20 μM, 24, 48 or 72 hours
Experimental: (§1) Human cancer cell lines were obtained from ATCC and cultured in DMEM (Gibco, Cleveland, TN, USA) supplemented with 5% fetal bovine serum (Gibco), penicillin (100 U/mL)-streptomycin (100 μg/mL) (Gibco, Cat. No. 15140-122), 2 mM L-glutamine (Gibco, 200 mM solution, Cat. No. 25030081), and 1 mM sodium pyruvate (Gibco, 100 mM solution, Cat. No. 11360070) at 37° C. in a humidified incubator that was maintained at 5% CO2.
Screening was conducted as described before (Li et al. 2019). Briefly, RPE-Neo or RPE-MYC or RPE-MYC expressing an EGFP-Histone 2B fusion protein were passaged as batches of 96-well plates, 18-24 hours before exposure to the chemical compounds of the present disclosure at concentrations from 20 nM to 20 μM. At 24, 48 or 72 hours after initiation of treatment, cells were analyzed for either an arrest in mitosis or a change in DNA content by GE IN-Cell Analyzer 2000. MTT assays of cellular proliferation were performed as previously described (Li et al. 2019).
(§2) As set forth in table 2 below, an values of greater than or equal to 1 nM and less than or equal to 1.0 μM is marked “A”; a value greater than 1.00 μM and less than or equal to 10.0 μM is marked “B”; a value greater than 10.0 μM and less than or equal to 30.0 μM is marked “C”; and a value greater than 30.0 μM and less than 1000 μM is marked “D.”

[2] = tested on: RPE-Neo or RPE-MYC cells; assay: MTT assay of cellular proliferation (proliferative arrest); type: cell-based; conditions: read-out: Min. Effective conc. for Proliferative arrest (>50%)
Experimental: as §1
Screening was conducted as described before (Li et al. 2019). Briefly, RPE-Neo or RPE-MYC or RPE-MYC expressing an EGFP-Histone 2B fusion protein were passaged as batches of 96-well plates, 18-24 hours before exposure to the chemical compounds of the present disclosure at concentrations from 20 nM to 20 μM. At 24, 48 or 72 hours after initiation of treatment, cells were analyzed for either an arrest in mitosis or a change in DNA content by GE IN-Cell Analyzer 2000. MTT assays of cellular proliferation were performed as previously described (Li et al. 2019). […]
as §2

[3] = read-out: Min. Effective conc. for Along with Cell Death
[4] = ≥5%, read-out: Min. Effective conc. for Mitotic Arrest (≥5%)
[5] = ≥5%, read-out: Min. Effective conc. for Polyploidy (≥5%)

Measured: minimal effective concentration

COc1ccc(CN2C(=O)CC(c3ncc(C)o3)=Cc3ccc(-c4ccc(OC)nc4)cc32)cc1 [Compound 44, 1-(4-methoxybenzyl)-8-(6-methoxypyridin-3-yl)-4-(5-methyloxazol-2-yl)-1,3-dihydro-2H-benzo[b]azepin-2-one]
0.001 to 1 µM: [1]; [3] | [1]; [4] | [1]; [5] | [2]

COc1ccc(CN2C(=O)CC(c3ncc(C)o3)=Cc3ccc(-c4cncnc4)cc32)cc1 [Compound 46, 1-(4-methoxybenzyl)-4-(5-methyloxazol-2-yl)-8-(pyrimidin-5-yl)-1,3-dihydro-2H-benzo[b]azepin-2-one]
0.001 to 1 µM: [1]; [3] | [1]; [4] | [1]; [5] | [2]

COc1ccc(CN2C(=O)CC(c3ncc(C)o3)=Cc3ccc(-c4cnc(N)nc4)cc32)cc1 [Compound 47, 8-(2-aminopyrimidin-5-yl)-1-(4-methoxybenzyl)-4-(5-methyloxazol-2-yl)-1,3-dihydro-2H-benzo[b]azepin-2-one]
0.001 to 1 µM: [1]; [3] | [1]; [4] | [1]; [5] | [2]

COc1ccc(CN2C(=O)CC(c3ncc(C)o3)=Cc3ccc(-c4cnn(C5CCOC5)c4)cc32)cc1 (stereo not shown) [Compound 48, 1-(4-methoxybenzyl)-4-(5-methyloxazol-2-yl)-8-(1-(tetrahydrofuran-3-yl)-1H-pyrazol-4-yl)-1,3-dihydro-2H-benzo[b]azepin-2-one]
0.001 to 1 µM: [1]; [3] | [1]; [4] | [1]; [5] | [2]

COc1ccc(CN2C(=O)CC(c3ncc(C)o3)=Cc3ccc(-c4cnn(C5CCOCC5)c4)cc32)cc1 [Compound 49, 1-(4-methoxybenzyl)-4-(5-methyloxazol-2-yl)-8-(1-(tetrahydro-2H-pyran-4-yl)-1H-pyrazol-4-yl)-1,3-dihydro-2H-benzo[b]azepin-2-one]
0.001 to 1 µM: [1]; [3] | [1]; [4] | [1]; [5] | [2]

COc1ccc(CN2C(=O)CC(c3ncc(C)o3)=Cc3ccc(-c4cnn(CC(N)=O)c4)cc32)cc1 [Compound 50, 2-(4-(1-(4-methoxybenzyl)-4-(5-methyloxazol-2-yl)-2-oxo-2,3-dihydro-1H-benzo[b]azepin-8-yl)-1H-pyrazol-1-yl)acetamide]
0.001 to 1 µM: [1]; [3] | [1]; [4] | [1]; [5] | [2]

COc1ccc(CN2C(=O)CC(c3nnc(C4CC4)o3)=Cc3ccc(-c4cnn(CCN5CCOCC5)c4)cc32)cc1 [Compound 52, 4-(5-cyclopropyl-1,3,4-oxadiazol-2-yl)-1-(4-methoxybenzyl)-8-(1-(2-morpholinoethyl)-1H-pyrazol-4-yl)-1,3-dihydro-2H-benzo[b]azepin-2-one]
0.001 to 1 µM: [1]; [3] | [1]; [4] | [1]; [5] | [2]

COc1ccc(CN2C(=O)CC(c3ncc(C)o3)=Cc3ccc(-c4ccnc(N)c4)cc32)cc1 [Compound 55, 8-(2-Aminopyridin-4-yl)-1-(4-methoxybenzyl)-4-(5-methyloxazol-2-yl)-1,3-dihydro-2H-benzo[b]azepin-2-one]
0.001 to 1 µM: [1]; [3] | [1]; [4] | [1]; [5] | [2]

COc1ccc(CN2C(=O)CC(c3ncc(C)o3)=Cc3ccc(-c4cnn(C(C)(C)CO)c4)cc32)cc1 [Compound 56, 8-(1-(1-hydroxy-2-methylpropan-2-yl)-1H-pyrazol-4-yl)-1-(4-methoxybenzyl)-4-(5-methyloxazol-2-yl)-1,3-dihydro-2H-benzo[b]azepin-2-one]
0.001 to 1 µM: [1]; [3] | [1]; [4] | [1]; [5] | [2]

CCOC(C)n1cc(-c2ccc3c(c2)N(Cc2ccc(OC)cc2)C(=O)CC(c2ncc(C)o2)=C3)cn1 (stereo not shown) [Compound 58, 8-(1-(1-Ethoxyethyl)-1H-pyrazol-4-yl)-1-(4-methoxybenzyl)-4-(5-methyloxazol-2-yl)-1,3-dihydro-2H-benzo[b]azepin-2-one]
0.001 to 1 µM: [1]; [3] | [1]; [4] | [1]; [5] | [2]

COc1ccc(CN2C(=O)CC(c3ncc(C)o3)=Cc3ccc(-c4cnn(CCC#N)c4)cc32)cc1 [Compound 59, 3-(4-(1-(4-Methoxybenzyl)-4-(5-methyloxazol-2-yl)-2-oxo-2,3-dihydro-1H-benzo[b]azepin-8-yl)-1H-pyrazol-1-yl)propanenitrile]
0.001 to 1 µM: [1]; [3] | [1]; [4] | [1]; [5] | [2]

CNC(=O)c1cc(-c2ccc3c(c2)N(Cc2ccc(OC)cc2)C(=O)CC(c2ncc(C)o2)=C3)ccn1 [Compound 60, 4-(1-(4-Methoxybenzyl)-4-(5-methyloxazol-2-yl)-2-oxo-2,3-dihydro-1H-benzo[b]azepin-8-yl)-N-methylpicolinamide]
0.001 to 1 µM: [1]; [3] | [1]; [4] | [1]; [5] | [2]

COc1ccc(CN2C(=O)CC(c3ncc(C)o3)=Cc3ccc(-c4ccn(C)c(=O)c4)cc32)cc1 [Compound 62, 1-(4-Methoxybenzyl)-8-(1-methyl-2-oxo-1,2-dihydropyridin-4-yl)-4-(5-methyloxazol-2-yl)-1,3-dihydro-2H-benzo[b]azepin-2-one]
0.001 to 1 µM: [1]; [3] | [1]; [4] | [1]; [5] | [2]

COc1ccc(CN2C(=O)CC(c3ncc(C)o3)=Cc3ccc(-c4cnn(CCN5CCCC5)c4)cc32)cc1 [Compound 64, 1-(4-methoxybenzyl)-4-(5-methyloxazol-2-yl)-8-(1-(2-(pyrrolidin-1-yl)ethyl)-1H-pyrazol-4-yl)-1,3-dihydro-2H-benzo[b]azepin-2-one]
0.001 to 1 µM: [1]; [3] | [1]; [4] | [1]; [5] | [2]

COc1ccc(CN2C(=O)CC(c3ncc(C)o3)=Cc3ccc(-c4cnn(CCN(C)C)c4)cc32)cc1 [Compound 66, 8-(1-(2-(Dimethylamino)ethyl)-1H-pyrazol-4-yl)-1-(4-methoxybenzyl)-4-(5-methyloxazol-2-yl)-1,3-dihydro-2H-benzo[b]azepin-2-one]
0.001 to 1 µM: [1]; [3] | [1]; [4] | [1]; [5] | [2]

CNC(=O)Cn1cc(-c2ccc3c(c2)N(Cc2ccc(OC)cc2)C(=O)CC(c2ncc(C)o2)=C3)cn1 [Compound 67, 2-(4-(1-(4-Methoxybenzyl)-4-(5-methyloxazol-2-yl)-2-oxo-2,3-dihydro-1H-benzo[b]azepin-8-yl)-1H-pyrazol-1-yl)-N-methylacetamide]
0.001 to 1 µM: [1]; [3] | [1]; [4] | [1]; [5] | [2]
